US8198273B2, “Compounds and methods for kinase modulation, and indications therefor” (Plexxikon Inc., priority 2009, dated 2012)

How the values were obtained:
[1] = Relative solubility by turbidity in aqueous buffers of varying pH; assay type: physicochemical; conditions: for turbidity threshold (L, M, H) 7.4: HEPES pH 7.4; for turbidity threshold (L, M, H) 4.5: SIF pH 4.5; for turbidity threshold (L, M, H) 6.8: SIF pH 6.8; for turbidity threshold (L, M, H) 1.4: buffer pH 1.4 (SGF)
Procedure: As an indication of relative solubility, the turbidity of compounds in aqueous solutions is assessed. To assess possible compound properties in different physiological compartments, such as stomach, intestine, and blood, a series of aqueous buffers with varying pH is used. Thus each compound is diluted into four different physiologically relevant buffers and solution turbidity is measured by spectrophotometry.
Compounds are dissolved at a concentration of 25 mM in dimethyl sulfoxide, then serially diluted 1:1 into a 96 well plate, diluting 10 times in pure dimethyl sulfoxide, with the final well of each row a dimethyl sulfoxide blank. In an assay plate, 99 μL of appropriate buffer is added to each well, and 1 μL of each sample dilution is added to the buffer, achieving a range of final total concentrations in aqueous solutions having different pH. The buffers used are Simulated Gastric Fluid (SGF-pH 1.5) 0.5M NaCl, pH 1.5; Simulated Intestinal fluid (SIF-pH 4.5 and pH 6.8) 0.05M NaH2PO4, pH 4.5 and 6.8; and Hepes Buffer (HEPES-pH 7.4) 10 mM HEPES, 150 mM NaCl, pH 7.4. Control compounds pyrene, estriol and propranolol HCl are also assessed. Plates are spun and then mixed for 1 minute, and the absorbance is read using a Tecan Safire II to read wavelengths in the visible range (490, 535, and 650 nm) at four locations per well, reflecting the degree of turbidity present. The average optical density for each wavelength in each well is graphed vs. compound concentration, and the concentration at which the curve crosses a threshold O.D. of 0.01 for each wavelength is reported as the endpoint turbidity assay result. The average of the three wavelengths is used to compare turbidity of compounds. Compounds are considered to have low solubility if the threshold concentration is <31.3 04, moderate solubility if the threshold concentration is 31.3 μM to 250 μM, and high solubility if the threshold concentration is >250 μM.

CYP3A4(BFC) = CYP3A4(BFC) (Homo sapiens, UniProt P08684); assay: CYP3A4(BFC) inhibition (fluorescent substrate); assay type: in vitro ADME; conditions: read-out: Cyp IC50 3A4(BFC)
Procedure: CYP (Cytochrome P450) enzymes are the major drug metabolizing enzymes present in the liver. The inhibition of CYP enzyme activity (IC50) for each of CYP1A2, CYP2C19, CYP2C9, CYP2D6, CYP3A4(BFC) and CYP3A4(BQ) is determined for compounds, where inhibition of metabolism of a known substrate leads to a decrease in the fluorescence of the metabolized product. The fluorescence of the product is monitored as a function of compound concentration. Compounds are dissolved in dimethyl sulfoxide to a concentration of 100 mM. These are diluted 1 μL into 82 μL of acetonitrile. […] These are then serially diluted 1:1 (160 μL to 160 μL co-factor mix) for a total of 10 points. A 10 μL aliquot of this final mixture is dispensed into 384 well assay plates and incubated for 10 minutes at 37° C. […] Assay plates are incubated at 37° C. […] The signal versus compound concentration is used to determine the IC50. The enzymes and substrates for this assay are obtained from BD Biosciences.

B-Raf = B-Raf (Homo sapiens, UniProt P15056); assay: B-Raf biochemical kinase inhibition (AlphaScreen, biotin-MEK1 substrate); conditions: 100 μM ATP
Procedure: Compounds to be tested are diluted in dimethyl sulfoxide to a concentration of 0.1 mM. These are serially diluted 15 μL into 30 μL of dimethyl sulfoxide seven times in 96 well plates for a total of 8 dilution points, and for each dilution point 1 μL is added to a well of an assay plate. […] The reaction is started with addition of 10 μL of 200 μM ATP (i.e. final 100 μM ATP). […] The plates are incubated for 3 hours at room temperature and read on Envision reader (Perkin Elmer). […] The signal vs. compound concentration is used to determine the IC50.

B-Raf, sequence (P15056 whole entry): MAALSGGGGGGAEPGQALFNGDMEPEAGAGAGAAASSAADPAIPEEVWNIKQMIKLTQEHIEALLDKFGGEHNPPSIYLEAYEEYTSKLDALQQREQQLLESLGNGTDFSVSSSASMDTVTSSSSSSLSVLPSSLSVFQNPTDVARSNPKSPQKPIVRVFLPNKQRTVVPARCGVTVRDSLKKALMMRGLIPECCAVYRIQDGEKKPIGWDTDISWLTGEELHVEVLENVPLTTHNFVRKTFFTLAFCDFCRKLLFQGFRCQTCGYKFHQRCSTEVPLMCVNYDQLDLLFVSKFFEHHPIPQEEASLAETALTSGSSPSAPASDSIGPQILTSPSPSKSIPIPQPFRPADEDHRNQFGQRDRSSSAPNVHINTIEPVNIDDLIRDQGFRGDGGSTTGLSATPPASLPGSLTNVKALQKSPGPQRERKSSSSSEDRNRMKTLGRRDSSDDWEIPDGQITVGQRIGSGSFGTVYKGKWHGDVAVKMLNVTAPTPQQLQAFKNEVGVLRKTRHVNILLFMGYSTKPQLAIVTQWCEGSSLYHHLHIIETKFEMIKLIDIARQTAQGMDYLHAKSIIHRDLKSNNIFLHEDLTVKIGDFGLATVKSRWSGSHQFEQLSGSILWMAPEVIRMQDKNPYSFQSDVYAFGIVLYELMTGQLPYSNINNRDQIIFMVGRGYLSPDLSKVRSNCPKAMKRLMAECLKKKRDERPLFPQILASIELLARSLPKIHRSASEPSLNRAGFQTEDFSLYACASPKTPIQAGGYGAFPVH
CYP3A4(BFC), sequence (P08684 whole entry): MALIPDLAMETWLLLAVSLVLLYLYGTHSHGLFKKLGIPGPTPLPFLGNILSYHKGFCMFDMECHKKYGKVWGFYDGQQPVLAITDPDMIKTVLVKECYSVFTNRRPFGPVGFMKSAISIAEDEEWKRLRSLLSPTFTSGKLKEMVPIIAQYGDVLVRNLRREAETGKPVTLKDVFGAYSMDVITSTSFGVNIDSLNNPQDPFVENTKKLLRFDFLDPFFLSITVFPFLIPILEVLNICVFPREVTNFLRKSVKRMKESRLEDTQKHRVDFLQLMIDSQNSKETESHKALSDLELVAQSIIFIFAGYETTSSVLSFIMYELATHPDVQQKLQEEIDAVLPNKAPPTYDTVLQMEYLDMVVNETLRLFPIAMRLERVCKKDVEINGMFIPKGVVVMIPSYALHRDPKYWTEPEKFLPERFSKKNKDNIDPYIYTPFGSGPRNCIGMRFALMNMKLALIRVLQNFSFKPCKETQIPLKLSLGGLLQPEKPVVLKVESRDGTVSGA

Row | Compound | IC50 (CYP3A4(BFC)) [nM] | IC50 (B-Raf) [nM] | turbidity threshold (L, M, H) 7.4 [1] | turbidity threshold (L, M, H) 4.5 [1] | turbidity threshold (L, M, H) 6.8 [1] | turbidity threshold (L, M, H) 1.4 [1]
1 | N#Cc1cnc2[nH]cc(C(=O)c3cccc(NS(=O)(=O)c4c(F)cccc4F)c3F)c2c1 [P-2054, N-[3-(5-Cyano-1H-pyrrolo[2,3-b]pyridine-3-carbonyl)-2-fluoro-phenyl]-2,6-difluoro-benzenesulfonamide] | > 10000 | < 100 |  |  |  | 
2 | O=C(c1c(F)ccc(NS(=O)(=O)c2c(F)cccc2F)c1F)c1c[nH]c2nccc(Cl)c12 [P-2033, N-[3-(4-Chloro-1H-pyrrolo[2,3-b]pyridine-3-carbonyl)-2,4-difluoro-phenyl]-2,6-difluoro-benzenesulfonamide] | > 10000 | < 100 |  |  |  | 
3 | CCCS(=O)(=O)Nc1ccc(F)c(C(=O)c2c[nH]c3ncc(-c4cnc(OC)nc4OC)cc23)c1F [P-2199, Propane-1-sulfonic acid {3-[5-(2,4-dimethoxy-pyrimidin-5-yl)-1H-pyrrolo[2,3-b]pyridine-3-carbonyl]-2,4-difluoro-phenyl}-amide] | > 10000 | < 100 |  |  |  | 
4 | CCCS(=O)(=O)Nc1ccc(F)c(C(=O)c2c[nH]c3ncc(-c4ccc(S(=O)(=O)CC)cc4)cc23)c1F [P-2218, Propane-1-sulfonic acid {3-[5-(4-ethanesulfonyl-phenyl)-1H-pyrrolo[2,3-b]pyridine-3-carbonyl]-2,4-difluoro-phenyl}-amide] | > 10000 | < 100 |  |  |  | 
5 | CCCS(=O)(=O)Nc1ccc(F)c(C(=O)c2c[nH]c3ncc(-c4cnc(N5CCCC5)nc4)cc23)c1F [P-2219, Propane-1-sulfonic acid {2,4-difluoro-3-[5-(2-pyrrolidin-1-yl-pyrimidin-5-yl)-1H-pyrrolo[2,3-b]pyridine-3-carbonyl]-phenyl}-amide] |  | < 100 | L (low solubility if the threshold concentration is <31.3 04) | L (low solubility if the threshold concentration is <31.3 04) | L (low solubility if the threshold concentration is <31.3 04) | M (moderate solubility if the threshold concentration is 31.3 μM to 250 μM)
6 | COc1ccnc2[nH]cc(C(=O)c3c(F)ccc(NS(=O)(=O)c4c(F)cccc4F)c3F)c12 [P-2031, N-[2,4-Difluoro-3-(4-methoxy-1H-pyrrolo[2,3-b]pyridine-3-carbonyl)-phenyl]-2,6-difluoro-benzenesulfonamide] | > 10000 | < 1000 |  |  |  | 
7 | COc1ccnc2[nH]cc(C(=O)c3c(F)ccc(NS(=O)(=O)c4cccnc4)c3F)c12 [P-2073, Pyridine-3-sulfonic acid [2,4-difluoro-3-(4-methoxy-1H-pyrrolo[2,3-b]pyridine-3-carbonyl)-phenyl]-amide] | 5000 to 10000 | < 100 |  |  |  | 
8 | N#Cc1cnc2[nH]cc(C(=O)c3c(F)ccc(NS(=O)(=O)c4c(F)cccc4F)c3F)c2c1 [P-2029, N-[3-(5-Cyano-1H-pyrrolo[2,3-b]pyridine-3-carbonyl)-2,4-difluoro-phenyl]-2,6-difluoro-benzenesulfonamide] | > 10000 | < 100 |  |  |  | 
9 | CCCS(=O)(=O)Nc1ccc(F)c(C(=O)c2c[nH]c3ncc(-c4ccc(S(=O)(=O)NC5CC5)cc4)cc23)c1F [P-2168, N-Cyclopropyl-4-{3-[2,6-difluoro-3-(propane-1-sulfonylamino)-benzoyl]-1H-pyrrolo[2,3-b]pyridin-5-yl}-benzenesulfonamide] |  | < 10 | L (low solubility if the threshold concentration is <31.3 04) | L (low solubility if the threshold concentration is <31.3 04) | L (low solubility if the threshold concentration is <31.3 04) | L (low solubility if the threshold concentration is <31.3 04)

Further lines, with some results ahead:

Row | IC50 (CYP3A4(BFC)) [nM] | IC50 (B-Raf) [nM] | Compound | turbidity threshold (L, M, H) 7.4 [1] | turbidity threshold (L, M, H) 4.5 [1] | turbidity threshold (L, M, H) 6.8 [1] | turbidity threshold (L, M, H) 1.4 [1]
10 | > 10000 | < 10 | COc1ncc(-c2cnc3[nH]cc(C(=O)c4c(F)ccc(NS(=O)(=O)c5cc(F)ccc5F)c4F)c3c2)cn1 [P-2042, N-{2,4-Difluoro-3-[5-(2-methoxy-pyrimidin-5-yl)-1H-pyrrolo[2,3-b]pyridine-3-carbonyl]-phenyl}-2,5-difluoro-benzenesulfonamide] | L (low solubility if the threshold concentration is <31.3 04) | L (low solubility if the threshold concentration is <31.3 04) | L (low solubility if the threshold concentration is <31.3 04) | L (low solubility if the threshold concentration is <31.3 04)
11 | < 5000 | < 10 | CCCS(=O)(=O)Nc1ccc(F)c(C(=O)c2c[nH]c3ncc(-c4cnn(CCN5CCOCC5)c4)cc23)c1F [P-2177, Propane-1-sulfonic acid (2,4-difluoro-3-{5-[1-(2-morpholin-4-yl-ethyl)-1H-pyrazol-4-yl]-1H-pyrrolo[2,3-b]pyridine-3-carbonyl}-phenyl)-amide] | L (low solubility if the threshold concentration is <31.3 04) | M (moderate solubility if the threshold concentration is 31.3 μM to 250 μM) | L (low solubility if the threshold concentration is <31.3 04) | H (high solubility if the threshold concentration is >250 μM)
12 | > 10000 | < 10 | CCCS(=O)(=O)Nc1ccc(F)c(C(=O)c2c[nH]c3ncc(-c4ccc(S(=O)(=O)NC)cc4)cc23)c1F [P-2167, 4-{3-[2,6-Difluoro-3-(propane-1-sulfonylamino)-benzoyl]-1H-pyrrolo[2,3-b]pyridin-5-yl}-N-methyl-benzenesulfonamide] |  |  |  | 
13 | > 10000 | < 10 | CCCS(=O)(=O)Nc1ccc(F)c(C(=O)c2c[nH]c3ncc(-c4cccc(S(C)(=O)=O)c4)cc23)c1F [P-2228, Propane-1-sulfonic acid {2,4-difluoro-3-[5-(3-methanesulfonyl-phenyl)-1H-pyrrolo[2,3-b]pyridine-3-carbonyl]-phenyl}-amide] |  |  |  | 
14 | > 10000 | < 10 | CCCS(=O)(=O)Nc1ccc(F)c(C(=O)c2c[nH]c3ncc(-c4ccc(SC)nc4)cc23)c1F [P-2187, Propane-1-sulfonic acid {2,4-difluoro-3-[5-(6-methylsulfanyl-pyridin-3-yl)-1H-pyrrolo[2,3-b]pyridine-3-carbonyl]-phenyl}-amide] |  |  |  | 
15 | 5000 to 10000 | < 10 | N#Cc1cnc2[nH]cc(C(=O)c3c(F)ccc(NS(=O)(=O)c4cccnc4)c3F)c2c1 [P-2072, Pyridine-3-sulfonic acid [3-(5-cyano-1H-pyrrolo[2,3-b]pyridine-3-carbonyl)-2,4-difluoro-phenyl]-amide] |  |  |  | 
16 | > 10000 | < 10 | CCCS(=O)(=O)Nc1ccc(F)c(C(=O)c2c[nH]c3ncc(-c4ccc(Cl)nc4)cc23)c1F [P-2154, Propane-1-sulfonic acid {3-[5-(6-chloro-pyridin-3-yl)-1H-pyrrolo[2,3-b]pyridine-3-carbonyl]-2,4-difluoro-phenyl}-amide] |  |  |  | 
17 | > 10000 | < 10 | CCCS(=O)(=O)Nc1ccc(F)c(C(=O)c2c[nH]c3ncc(-c4ccc(N)nc4)cc23)c1F [P-2214, Propane-1-sulfonic acid {3-[5-(6-amino-pyridin-3-yl)-1H-pyrrolo[2,3-b]pyridine-3-carbonyl]-2,4-difluoro-phenyl}-amide] |  |  |  | 
